Residue numbers refer to the chain shown, from its start.
Columns and labels:
[1] = tested on: PMNs; test: NADPH/NADP+ detection assay in neutrophils; assay type: cell-based, human; conditions: PMA 30 min, then apocynin
Protocol: The ratio of NADPH/NADP^+ (or NADH/NAD^+) was calculated after measuring the individual concentrations of NADPH and NADP^+ (or NADH and NAD^+) with NADP/NADPH-Glo (or NAD/NADH-Glo) assays (Promega). […] Cells were lysed in plates by addition of 1% dodecyltrimethylammonium bromide (DTAB). To measure NADPH, half of the samples was heated at 60 °C for 30 min. The other half was treated with HCl before heating to 60°C, to measure NADP^+. All samples were neutralized before adding luciferase detection reagent, then incubated for 1 h with gentle shaking. Luminescence was recorded on a plate reader (Envision).

[2] = target: T1, PFKM+pocket (R315 to lysine) (Homo sapiens, UniProt P08237, R315K); test: Recombinant PFKM+pocket activity assay; assay type: biochemical; conditions: at 4 mM ATP
T1 construct: made in house; host or cells: Sf9 insect cells (baculovirus)
T1 sequence (P08237 1-780 R315K): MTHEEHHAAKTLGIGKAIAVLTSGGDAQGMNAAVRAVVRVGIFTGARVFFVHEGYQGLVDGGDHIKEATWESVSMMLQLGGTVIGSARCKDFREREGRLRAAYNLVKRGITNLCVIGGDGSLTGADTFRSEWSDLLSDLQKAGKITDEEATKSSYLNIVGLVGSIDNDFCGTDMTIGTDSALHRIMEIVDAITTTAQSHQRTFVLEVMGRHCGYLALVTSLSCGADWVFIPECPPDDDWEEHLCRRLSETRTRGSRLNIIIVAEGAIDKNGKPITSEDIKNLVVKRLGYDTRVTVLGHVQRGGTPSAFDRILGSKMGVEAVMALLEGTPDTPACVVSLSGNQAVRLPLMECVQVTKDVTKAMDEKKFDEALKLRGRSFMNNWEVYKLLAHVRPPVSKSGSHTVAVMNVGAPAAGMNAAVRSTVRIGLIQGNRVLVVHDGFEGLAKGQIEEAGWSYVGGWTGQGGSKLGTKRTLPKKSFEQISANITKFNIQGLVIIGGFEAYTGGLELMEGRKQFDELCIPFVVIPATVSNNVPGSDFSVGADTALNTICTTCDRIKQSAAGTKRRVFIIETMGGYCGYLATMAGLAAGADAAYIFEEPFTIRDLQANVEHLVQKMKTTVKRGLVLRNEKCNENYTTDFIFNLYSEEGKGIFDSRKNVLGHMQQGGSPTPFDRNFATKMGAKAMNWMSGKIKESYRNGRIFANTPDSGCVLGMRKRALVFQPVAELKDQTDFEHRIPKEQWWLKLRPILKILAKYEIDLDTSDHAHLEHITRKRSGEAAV
From the text: (§1) Recombinant N-terminal His-tagged human PFKL (NP_002617), PFKM (NP_000280), and PFKP (NM_002627.4) were generated as described ([Webb et al., 2015], [2017]). Point mutants of PFK1 were generated using the QuikChange Lightning kit (Aligent).
(§2) His-tagged PFK1 was expressed and purified as described with slight modifications ([Webb et al., 2015], [2017]). Briefly, baculovirus was generated using the Bac-to-Bac Expression system (Invitrogen). PFK1 was expressed in 2-5 × 10^6 sf9 cells at a multiplicity of infection of two for 48 h. Cells were lysed in 20 mM HEPES, pH 7.5, 80 mM potassium phosphate, 1 mM 2-mercapentoethanol, 10% glycerol, 10 mM imidazole, and EDTA-free Protease Inhibitor Cocktail (Abcam) with a Dounce homogenizer. The soluble lysate was incubated with HisPur cobalt resin (ThermoFisher Scientific). The resin was washed with 5 bead volumes lysis buffer, 10 bead volumes lysis buffer containing 2 M NaCl, and 5 further bead volumes lysis buffer. PFK1 was eluted in lysis buffer containing 100 mM imidazole. Fractions containing protein were pooled, passed over a desalting column equilibrated in freezing buffer [20 mM HEPES pH 7.5, 1 mM DTT, 500 μM ammonium sulfate, 5% glycerol, 1 mM ATP, and 100 μM EDTA] and concentrated using an Amicon Ultracel-30K Centrifugal Filter Unit (MilliporeSigma). Protein was quantified using a Bradford Protein Assay kit (ThermoFisher Scientific), and aliquotes frozen in liquid nitrogen for storage at −80°C.
PFK1 activity was determined using the rate of FBP production via an auxiliary enzyme assay adapted to a 96-well format ([Brüser et al., 2012]; [Webb et al., 2015]). The auxiliary enzymes aldolase, triosephosphate isomerase, and glycerol phosphate dehydrogenase were purchased from MilliporeSigma as ammonium sulfate slurries and desalted using an Amicon Ultracel-10K Centrifugal Filter Unit. For assays containing FBP, the rate of ADP production was determined using the auxiliary enzymes pyruvate kinase (PK) and lactate dehydrogenase (LDH) (MilliporeSigma) in a buffer containing 250 μM phosphoenolpyruvic acid, […] NADH, 50 mM HEPES pH 7.5, 100 mM KCl, 1 mM DTT, and effector concentrations as described in the text. The temperature was equilibrated to 25°C for 5 min before initiating the reaction 10 mM MgCl2. Absorbance at 340 nm was measured using a Varioskan LUX Multimode microplate reader (ThermoFisher). Kinetic parameters were generated by nonlinear regression analysis using Prism (GraphPad Software) and are the mean of a minimum of three measurements from two independent preparations of protein. One unit of activity was defined as the amount of enzyme that catalyzed the formation of 1 μmol of fructose 1,6-bisphosphate per min at 25°C. […]

[3] = target: T2, PFKL (K315R, V545L, and V582M), PFKL3Mut (Homo sapiens, UniProt P17858, K315R/V545L/V582M); test: Recombinant PFKL3Mut activity assay; assay type: biochemical; conditions: at 3.1 mM ATP; F6P approximately twice the Km,F6P
T2 construct: made in house; host or cells: Sf9 insect cells (baculovirus)
T2 sequence (P17858 1-780 K315R/V545L/V582M): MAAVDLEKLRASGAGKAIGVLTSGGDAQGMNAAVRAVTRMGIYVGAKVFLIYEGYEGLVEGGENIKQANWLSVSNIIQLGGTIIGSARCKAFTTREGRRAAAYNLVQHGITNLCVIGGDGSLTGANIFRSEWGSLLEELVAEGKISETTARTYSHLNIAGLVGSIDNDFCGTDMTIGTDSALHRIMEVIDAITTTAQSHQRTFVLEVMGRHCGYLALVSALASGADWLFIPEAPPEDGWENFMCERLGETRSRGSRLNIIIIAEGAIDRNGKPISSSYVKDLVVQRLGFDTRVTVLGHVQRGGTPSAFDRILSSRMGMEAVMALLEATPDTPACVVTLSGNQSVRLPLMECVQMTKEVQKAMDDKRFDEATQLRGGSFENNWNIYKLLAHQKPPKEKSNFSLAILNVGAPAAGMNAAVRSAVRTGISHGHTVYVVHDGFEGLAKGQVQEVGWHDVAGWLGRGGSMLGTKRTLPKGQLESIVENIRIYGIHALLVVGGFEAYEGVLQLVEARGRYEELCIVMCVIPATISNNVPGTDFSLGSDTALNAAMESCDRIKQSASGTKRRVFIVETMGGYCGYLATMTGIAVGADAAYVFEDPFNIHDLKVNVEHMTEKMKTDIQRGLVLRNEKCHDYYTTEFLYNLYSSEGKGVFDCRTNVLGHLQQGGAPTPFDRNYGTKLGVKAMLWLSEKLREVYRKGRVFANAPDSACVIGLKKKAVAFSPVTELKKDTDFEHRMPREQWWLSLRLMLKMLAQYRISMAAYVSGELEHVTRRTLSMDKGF
From the text: as §1, §2
(§3) PFK1 activity was determined using the rate of FBP production via an auxiliary enzyme assay adapted to a 96-well format ([Brüser et al., 2012]; [Webb et al., 2015]). The auxiliary enzymes aldolase, triosephosphate isomerase, and glycerol phosphate dehydrogenase were purchased from MilliporeSigma as ammonium sulfate slurries and desalted using an Amicon Ultracel-10K Centrifugal Filter Unit. For assays containing FBP, the rate of ADP production was determined using the auxiliary enzymes pyruvate kinase (PK) and lactate dehydrogenase (LDH) (MilliporeSigma) in a buffer containing 250 μM phosphoenolpyruvic acid, […] NADH, 50 mM HEPES pH 7.5, 100 mM KCl, 1 mM DTT, and effector concentrations as described in the text. The temperature was equilibrated to 25°C for 5 min before initiating the reaction 10 mM MgCl2. Absorbance at 340 nm was measured using a Varioskan LUX Multimode microplate reader (ThermoFisher). Kinetic parameters were generated by nonlinear regression analysis using Prism (GraphPad Software) and are the mean of a minimum of three measurements from two independent preparations of protein. One unit of activity was defined as the amount of enzyme that catalyzed the formation of 1 μmol of fructose 1,6-bisphosphate per min at 25°C. Assays for PFKM were performed at pH 7.0 due to the pH-dependence of ATP inhibition ([Trivedi and Danforth, 1966]).

[4] = target: T3, PFKL (Homo sapiens, UniProt P17858); test: Recombinant PFKL activity assay (relief of ATP inhibition); assay type: biochemical; conditions: at 3.1 mM ATP; F6P approximately twice the Km,F6P
T3 construct: made in house; host or cells: Sf9 insect cells (baculovirus, Bac-to-Bac)
T3 sequence (P17858 1-780): T2 sequence (P17858 1-780 K315R/V545L/V582M) with R315K, L545V, M582V
From the text: as §1, §2, §3

[5] = tested on: human peripheral blood neutrophils; test: NETosis assay in human neutrophils (SYTOX Green, DNA area); assay type: cell-based; conditions: PMA; SAR analogs compared to LDC7559
Protocol: Freshly purified neutrophils were plated at 6 × 10^3 cells/well in glass bottom 96-well plates (SensoPlate, Greiner Bio-One 82050-792) in the RPMI medium described above. Cells were pretreated with DMSO vehicle, 0.5 μM NA-11, 100 μM apocynin, 0.5 μM and 5 μM PALP, or 0.5 μM and 5 μM LDC7559 for 30 min, and then stimulated with 50 nM PMA, 1 μM f-MLP, 5 μg/mL cholesterol crystals, 10 μg/mL LPS, 25 μM nigericin, or 25 μM calcymicin (A23187) for 3 h (except in Figures S1A, 6A and S7C, where cells were stimulated for 4 h). Cells were fixed and permeabilized in 2.5% paraformaldehyde (PFA) and 0.02% Triton X-100 in PBS for 30 min. For quantification of NETosis, cells were stained with 150 nM SYTOX Green and imaged in a KEYENCE Fluorescence Microscope (KEYENCE, ZB-X800E) at 10 x magnification. For immunolabeling, fixed cells were blocked with 2% BSA for 1 h, and then stained with anti-CitH3 and anti-MPO antibodies at a dilution of 1/200 in 1% BSA in PBS. Images were taken at 60 x magnification using an ImageXpress Micro Confocal high-content imaging system (Molecular Devices).
Semi-automated analysis of both phase and fluorescence images of SYTOX Green-stained neutrophils used a specialized MATLAB algorithm. Total cells were counted by scoring phase standard deviation and radial symmetry. NETosis was classified in cells by measuring the DNA area in the fluorescence image and comparing with a select internal training set for each experiment. Unstimulated cells and PMA-stimulated, […] cells served as negative controls. PMA-stimulated cells served as a positive control. NET-forming cells are presented as a percentage of total cells.

[6] = tested on: PFK1; test: PFK1 activity in PMN lysates; assay type: cell-based, human; conditions: neutrophils treated with PMA, LPS, or cholesterol crystals
Protocol: PFK1 activity assays from neutrophil lysates were modified from Abrantes et al., 2012. Briefly, neutrophils (10^7) were cultured with 0.5 μM NA-11 for 30 min, and then stimulated with 50 nM PMA, 5 μg/mL cholesterol crystals, 10 μg/mL LPS or 25 μM nigericin for 30 min. Cells were lysed in 10 mM PBS, 1% Triton X-100, and 1 x EDTA-free protease inhibitor cocktail on ice for 10 min. The soluble protein lysates were quantified by BCA assay (Pierce) and adjusted to 0.3125 mg/mL with lysis buffer. Lysate (80 μL) was mixed with 100 μL 2x enzyme cocktail solution (100 mM Tris-HCL pH7.4, 10 mM MgCl2, 0.5 mM ATP, 0.3 mM NADH, 1.35 units/mL Aldolase, 10 units/mL Triose phosphate isomerase, 4 units/mL glycerophosphate dehydrogenase, 20 mM ammonium sulfate) equilibrated to reach room temperature for 5 min. 20 μL of Fructose-6-phosphate (40 mM) was added and the reaction monitored for NADH decrease (absorbance at 340 nm) every 30 s for 30 min. Specific activity is in pmoles FBP per min per mg lysate.

Row | Molecule | inhibition of PMA-induced NETosis [5] | further results
1 | NC(=O)c1ccc(N)nc1 [6-aminonicotinamide, reference compound] | – | NADPH replenishment / turnover after apocynin [1]: effectively blocked NADPH turnover
2 | Nc1ncnc2c1ncn2[C@@H]1O[C@H](COP(=O)(O)OP(=O)(O)OP(=O)(O)O)[C@@H](O)[C@H]1O [ATP] | – | inhibition of PFKM+pocket [2]: > 90%; inhibition of mutant PFKL (PFKL3Mut) [3]: > 80%; ATP inhibition of wild-type PFKL [4]: > 80%
3 | CC#CCC(=O)Nc1ccc2c(c1)OCc1cc(-c3ccccc3OC)nn1C2 [NA-2] | no inhibitor activity | –
4 | COc1cccc(-c2cc3n(n2)Cc2ccc(NC(C)=O)cc2OC3)c1 [NA-6] | slight increase in inhibitory activity | –
5 | COc1ccc(-c2cc3n(n2)Cc2ccc(NC(C)=O)cc2OC3)cc1 [NA-7] | slight increase in inhibitory activity | –
6 | CC(=O)Nc1ccc2c(c1)OCc1cc(Br)nn1C2 [NA-8] | inactive | –
7 | CC#CCC(=O)Nc1cccc(-c2cc3n(n2)Cc2ccc(NC(C)=O)cc2OC3)c1 [NA-9] | largely tolerated | –
8 | CC(=O)Nc1ccc2c(c1)OCc1cc(-c3cccc(C#CCCCO)c3)nn1C2 [NA-10] | largely tolerated | –
9 | bisindolylmaleimide [reference compound] | – | activation-induced reduction in PFK1 activity [6]: prevented the decrease in PFKL activity

From publication PMC8802628, “Selective activation of PFKL suppresses the phagocytic oxidative burst” (Cell, 2021)
